Experimental findings from US20240246972A1, “AZAINDOLE ROCK INHIBITORS” (priority 2022, published 2024) are described below.

One data set has as its target PKA (Homo sapiens (Human), UniProt P17612). Nature of the data set: PKA inhibition assay (HotSpot kit, 33P-ATP). Type of data set: biochemical. The following applies: Table 2B; 10 μM ATP; Compound 1 is geometric mean of multiple experiments. As for the experimental part:
(§1) Compounds as a powder were dissolved in dimethyl sulfoxide to make a 10 mM stock. […] The HotSpot kit employing ^33P-ATP was used with reactions conducted at 10 μM ATP for each tested enzyme. The percent activity relative to DMSO controls for each concentration was then fitted to a curve using GraphPad Prism to determine the IC50. […] Each experiment was run in the same lab with this procedure.

Data set [1] concerns P-gp (MDR1). Nature of the data set: MDCK-MDR1 efflux assay, Experimental Procedure 1. The following applies: dog, Table 3A, pH 7.4. Type of data set: in vitro ADME. How it is done:
MDCK-MDR1 cells grown in tissue culture flasks were trypsinized, suspended in medium, and the suspensions were applied to wells of a Millipore 96 well plate. The cells were allowed to grow and differentiate for five days, feeding at 2-day intervals. For Apical to Basolateral (A→B) permeability, the test article was added to the apical (A) side and amount of permeation was determined on the basolateral (B) side; for Basolateral to Apical (B→A) permeability, the test article was added to the B side and the amount of permeation was determined on the A side. […] Following centrifugation, the supernatant for donor and receiver side samples were analyzed by LC-MS/MS. Data was expressed as permeability (Papp):Papp=(dQ/dt)/(C0A) where dQ/dt is rate of permeation, C0 is initial concentration of test article, and A is the area of monolayer. In bidirectional permeability studies, the Efflux Ratio (Re) was calculated: [formula]

A further data set addresses ROCK1 (Homo sapiens (Human), UniProt Q13464). As to the kind of experiment: ROCK1 inhibition assay (HotSpot kit, 33P-ATP). Type of data set: biochemical. The following applies: 10 μM ATP.
For a further data set, the target named is PRKX (Homo sapiens (Human), UniProt P51817). Nature of the data set: PRKX inhibition assay (HotSpot kit, 33P-ATP). The following applies: Table 2B; 10 μM ATP; Compound 1 is geometric mean of multiple experiments. Type of data set: biochemical. How it is done:
as §1

A further data set has as its target ROCK2 (Homo sapiens (Human), UniProt O75116). As to the kind of experiment: ROCK2 inhibition assay (HotSpot kit, 33P-ATP). Type of data set: biochemical. The following applies: 10 μM ATP.
Data set [2] in a line: 24 hour mouse pharmacokinetics. Type of data set: in vivo, B6SJLF1/J mice. The following applies: for AUC(0-inf) / AUC(0-t) / Cmax / half-life / Tmax: B6SJLF1/J, plasma. How it is done: Groups 2, 3, 4, 6, and 8: Test article was dissolved in a minimal amount of DMSO (Groups 2, 4, 6, 8: 40-50 μL, Group 3: 100 μL), 0.5% methylcellulose was added to final volume, then solution was sonicated for 2 minutes.
Group 7: Test article was dissolved in 100 μL DMSO, saline was added to final volume, then solution was sonicated for 2 minutes.
Groups 1, 5: The test article was administered as a single dose via slow bolus intravenous administration into a lateral tail vein, with a 27G needle.
Groups 2, 4, 6, 7, 8: The test article was administered as a single dose directly to the stomach by oral gavage.
Group 3: The test article was administered as a single dose in two parts with an approximate 1-2-minute rest between due to volume administered.
Approximately 150 μL of blood was collected by tail nick for the first time point and then the maximal volume by cardiac stick for the second, terminal time point in each mouse. The plasma was spun and separated within 30 minutes of collection and stored frozen at −20° C. until shipment.
Prior to the terminal blood collection, CSF was collected. […] The resulting data is shown in Tables 13, 14, 15, 16 and 17 below.

The nature of data set [3]: Kinetic solubility in PBS pH 7.4. Type of data set: physicochemical. The following applies: aqueous buffer, kinetic from dmso stock, PBS pH 7.4, 25° C. How it is done:
The assay was performed in duplicate.

Data set [4] in a line: 24 hour rat pharmacokinetics. The following applies: male. Type of data set: in vivo, Sprague-dawley rats.
For data set [5] the following is noted: mouse, in vivo, po, 20 mg/kg.
Data set [6] deals with P-gp (MDR1). Nature of the data set: MDCK-MDR1 efflux assay, Experimental Procedure 2. Type of data set: in vitro ADME. The following applies: dog, Table 3B, pH 7.4.
The mark [7] stands for this setting: Table 2B, Compound 1 is geometric mean of multiple experiments.
[8] abbreviates: Sprague-Dawley, in vivo, IV 3 mg/kg.
[9] abbreviates: Sprague-Dawley, in vivo, PO 10 mg/kg.

≈ marks a conversion by molar mass, not a printed value. Bounds are passed on as bounds.

Sequence of ROCK2 (O75116 whole entry): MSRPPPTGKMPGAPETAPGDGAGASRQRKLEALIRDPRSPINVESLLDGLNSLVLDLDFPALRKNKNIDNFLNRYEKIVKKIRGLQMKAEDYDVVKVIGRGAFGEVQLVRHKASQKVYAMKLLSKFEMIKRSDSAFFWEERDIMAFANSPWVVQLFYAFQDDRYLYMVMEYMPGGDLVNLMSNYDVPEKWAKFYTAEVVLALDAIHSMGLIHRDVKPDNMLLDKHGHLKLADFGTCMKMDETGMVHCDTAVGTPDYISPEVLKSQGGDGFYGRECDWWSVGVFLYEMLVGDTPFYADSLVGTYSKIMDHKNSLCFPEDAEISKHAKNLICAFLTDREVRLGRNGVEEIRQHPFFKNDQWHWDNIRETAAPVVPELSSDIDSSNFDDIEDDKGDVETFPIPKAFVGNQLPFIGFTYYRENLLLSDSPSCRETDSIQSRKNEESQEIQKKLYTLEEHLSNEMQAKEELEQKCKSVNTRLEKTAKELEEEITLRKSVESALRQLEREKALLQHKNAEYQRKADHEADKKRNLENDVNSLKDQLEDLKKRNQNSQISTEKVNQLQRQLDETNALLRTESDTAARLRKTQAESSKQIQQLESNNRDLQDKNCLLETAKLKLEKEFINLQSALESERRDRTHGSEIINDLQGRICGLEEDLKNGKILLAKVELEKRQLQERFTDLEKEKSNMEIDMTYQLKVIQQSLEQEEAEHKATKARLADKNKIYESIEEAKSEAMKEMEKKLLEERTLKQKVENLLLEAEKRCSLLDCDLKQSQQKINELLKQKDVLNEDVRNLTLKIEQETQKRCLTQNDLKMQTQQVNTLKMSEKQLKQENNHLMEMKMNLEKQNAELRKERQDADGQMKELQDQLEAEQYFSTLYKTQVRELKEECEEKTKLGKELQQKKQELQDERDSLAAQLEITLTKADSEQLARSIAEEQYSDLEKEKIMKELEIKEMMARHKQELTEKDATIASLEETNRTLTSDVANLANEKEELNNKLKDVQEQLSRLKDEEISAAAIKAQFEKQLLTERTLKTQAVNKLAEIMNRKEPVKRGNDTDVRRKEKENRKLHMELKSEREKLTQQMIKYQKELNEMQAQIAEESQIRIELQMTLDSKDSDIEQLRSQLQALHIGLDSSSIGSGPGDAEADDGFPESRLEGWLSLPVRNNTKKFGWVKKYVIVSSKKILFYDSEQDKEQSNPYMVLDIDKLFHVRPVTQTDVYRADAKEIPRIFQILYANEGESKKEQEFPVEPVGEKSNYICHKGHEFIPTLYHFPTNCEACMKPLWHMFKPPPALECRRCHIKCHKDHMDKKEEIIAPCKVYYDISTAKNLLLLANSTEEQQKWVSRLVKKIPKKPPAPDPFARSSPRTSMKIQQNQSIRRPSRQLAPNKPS
Sequence of ROCK1 (Q13464 whole entry): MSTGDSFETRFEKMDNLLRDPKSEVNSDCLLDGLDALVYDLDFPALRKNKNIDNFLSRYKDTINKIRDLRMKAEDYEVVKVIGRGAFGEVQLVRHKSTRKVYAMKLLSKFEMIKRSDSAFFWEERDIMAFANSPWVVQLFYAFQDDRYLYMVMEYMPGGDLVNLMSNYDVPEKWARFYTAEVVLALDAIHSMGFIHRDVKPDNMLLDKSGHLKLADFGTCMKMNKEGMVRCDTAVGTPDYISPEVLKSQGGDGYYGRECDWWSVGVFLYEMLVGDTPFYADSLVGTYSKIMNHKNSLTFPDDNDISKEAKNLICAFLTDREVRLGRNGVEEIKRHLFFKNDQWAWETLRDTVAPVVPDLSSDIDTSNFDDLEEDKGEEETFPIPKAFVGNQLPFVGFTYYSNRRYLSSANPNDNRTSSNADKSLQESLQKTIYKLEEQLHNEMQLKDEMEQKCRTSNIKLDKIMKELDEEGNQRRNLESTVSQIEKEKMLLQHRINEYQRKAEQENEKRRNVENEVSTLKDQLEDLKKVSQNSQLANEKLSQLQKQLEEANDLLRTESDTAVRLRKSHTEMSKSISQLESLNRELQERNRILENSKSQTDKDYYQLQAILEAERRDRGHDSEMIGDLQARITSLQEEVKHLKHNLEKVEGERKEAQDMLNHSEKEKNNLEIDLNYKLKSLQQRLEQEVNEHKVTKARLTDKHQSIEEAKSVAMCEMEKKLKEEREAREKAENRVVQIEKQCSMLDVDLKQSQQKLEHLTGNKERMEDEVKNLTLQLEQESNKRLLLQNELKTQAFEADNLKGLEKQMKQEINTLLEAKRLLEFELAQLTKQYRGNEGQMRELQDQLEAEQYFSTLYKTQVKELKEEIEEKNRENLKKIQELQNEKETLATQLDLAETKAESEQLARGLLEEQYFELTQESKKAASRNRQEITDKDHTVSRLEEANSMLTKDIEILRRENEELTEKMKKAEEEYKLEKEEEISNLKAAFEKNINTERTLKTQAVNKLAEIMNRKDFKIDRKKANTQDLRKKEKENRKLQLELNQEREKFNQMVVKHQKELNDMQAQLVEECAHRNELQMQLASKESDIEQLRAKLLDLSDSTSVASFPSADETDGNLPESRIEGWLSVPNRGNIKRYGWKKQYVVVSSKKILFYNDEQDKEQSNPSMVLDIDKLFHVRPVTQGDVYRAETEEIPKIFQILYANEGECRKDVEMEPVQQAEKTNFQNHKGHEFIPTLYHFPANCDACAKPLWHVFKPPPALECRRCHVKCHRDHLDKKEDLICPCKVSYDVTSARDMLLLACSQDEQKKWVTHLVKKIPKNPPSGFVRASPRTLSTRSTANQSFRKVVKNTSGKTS
Sequence of PRKX (P51817 whole entry): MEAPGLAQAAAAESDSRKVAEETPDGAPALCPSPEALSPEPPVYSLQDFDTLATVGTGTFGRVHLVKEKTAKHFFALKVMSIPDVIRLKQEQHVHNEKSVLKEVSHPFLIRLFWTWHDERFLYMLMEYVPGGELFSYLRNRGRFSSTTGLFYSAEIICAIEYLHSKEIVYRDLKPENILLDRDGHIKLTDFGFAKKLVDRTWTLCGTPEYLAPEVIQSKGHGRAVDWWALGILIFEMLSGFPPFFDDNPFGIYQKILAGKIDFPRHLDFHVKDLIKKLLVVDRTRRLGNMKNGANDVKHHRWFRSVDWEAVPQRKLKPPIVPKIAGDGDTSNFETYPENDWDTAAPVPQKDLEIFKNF

For the molecule `Cc1[nH]ncc1-c1ccc2cc(C(=O)NCc3c(Cl)cccc3OC3COC3)[nH]c2n1` [Comparator 3, N-(2-chloro-6-(oxetan-3-yloxy)benzyl)-6-(5-methyl-1H-pyrazol-4-yl)-1H-pyrrolo[2,3-b]pyridine-2-carboxamide, reference compound], the IC50 at PKA is 1400 nM; at ROCK1 (Table 2A), > 1000 nM; against PRKX, 376 nM; against ROCK2 (Table 2A), 587 nM. In addition, in the data set with P-gp (MDR1) [1], the efflux ratio at 2 h is 256.
`COc1cccc(CNC(=O)c2cc3ccc(-c4cn[nH]c4)nc3[nH]2)c1` [Comparator 6, N-(3-methoxybenzyl)-6-(1H-pyrazol-4-yl)-1H-pyrrolo[2,3-b]pyridine-2-carboxamide, reference compound]: the IC50 on ROCK1 (setting [7]) was 10.2 nM; at PRKX it was 165 nM; at ROCK2 (setting [7]), 0.96 nM.
Consider `Cn1c(C(=O)NCc2ccccc2F)cc2ccc(-c3cn[nH]c3)nc21` [Compound 1, N-(2-fluorobenzyl)-1-methyl-6-(1H-pyrazol-4-yl)-1H-pyrrolo[2,3-b]pyridine-2-carboxamide], for which the 50% inhibitory concentration (IC50) was determined as 238 nM against PKA; 16.4 nM on ROCK1 (Table 2A); 30.3 nM on ROCK1 (setting [7]); 31.4 nM at PRKX; 2.3 nM on ROCK2 (Table 2A); 2.7 nM at ROCK2 (setting [7]). Moreover, in the data set with P-gp (MDR1) [1], the efflux ratio at 2 h was 1.46. For the same molecule, the AUC(0-inf) in data set [2] (IV 3 mg/kg, male) came to 10200 ng·h/mL; in data set [2] (PO 10 mg/kg, male) it was 5750 ng·h/mL; in data set [2] (PO 100 mg/kg, male) it was 46000 ng·h/mL; in data set [4] (setting [8]), 4650 ng·h/mL; in data set [4] (Sprague-Dawley, plasma, PO 10 mg/kg) it was 2660 ng·h/mL. Further, the AUC(0-t) in data set [2] (IV 3 mg/kg, male) was found to be 10100 ng·h/mL; in data set [2] (PO 10 mg/kg, female) it was 5670 ng·h/mL; in data set [2] (PO 10 mg/kg, male), 5350 ng·h/mL; in [2] (PO 100 mg/kg, male), 44100 ng·h/mL; in data set [4] (setting [8]), 4620 ng·h/mL; in [4] (setting [9]), 2610 ng·h/mL. Moreover, the Cmax in data set [2] (IV 3 mg/kg, male) is 12200 ng/mL; in data set [2] (PO 10 mg/kg, female), 1110 ng/mL; in data set [2] (PO 10 mg/kg, male), 1040 ng/mL; in data set [2] (PO 100 mg/kg, male), 4070 ng/mL; in data set [4] (setting [8]) it was 5540 ng/mL; in data set [4] (setting [9]), 409 ng/mL. In addition, the half-life in data set [2] (IV 3 mg/kg, male) is 0.987 h; in [2] (PO 10 mg/kg, male), 2.72 h; in data set [2] (PO 100 mg/kg, male), 4.47 h; in data set [4] (setting [8]), 5.33 h; in data set [4] (setting [9]), 3.67 h. Also, the Tmax in data set [2] (PO 10 mg/kg, female) came to 1 h; in [2] (PO 10 mg/kg, male), 1 h; in data set [2] (PO 100 mg/kg, male), 8 h; in data set [4] (setting [9]) it was 2.67 h. For the same molecule, the AUC0-t/D is reported as 3380 (h*ng/mL)/(mg/kg) in data set [2] (IV 3 mg/kg, male); 567 (h*ng/mL)/(mg/kg) in data set [2] (PO 10 mg/kg, female); 535 (h*ng/mL)/(mg/kg) in data set [2] (PO 10 mg/kg, male); 441 (h*ng/mL)/(mg/kg) in [2] (PO 100 mg/kg, male); 1541 (h*ng/mL)/(mg/kg) in [4] (IV 3 mg/kg); 261 (h*ng/mL)/(mg/kg) in data set [4] (PO 10 mg/kg). For the same molecule, the Tlast in data set [2] (IV 3 mg/kg, male) was 8 h; in [2] (PO 10 mg/kg, female), 24 h; in data set [2] (PO 10 mg/kg, male), 12 h; in [2] (PO 100 mg/kg, male) it was 24 h; in data set [4] (IV 3 mg/kg) it was 24 h; in [4] (PO 10 mg/kg), 24 h. In addition, in data set [2] (PO 100 mg/kg vs 10 mg/kg, male), the “Ratio to 10 mg/kg Dose Level, AUC0-t” value is listed as 8.24. Also, the “Ratio to 10 mg/kg Dose Level, AUC0-∞” value in data set [2] (PO 100 mg/kg vs 10 mg/kg, male) was 8.00. For the same molecule, the “Ratio to 10 mg/kg Dose Level, Cmax” value in data set [2] (PO 100 mg/kg vs 10 mg/kg, male) is listed as 3.91. The molecule also registered a kinetic solubility at 2 h in [3] of 0.64 µM (≈ 0.224 µg/mL). Besides, the “mortality and adverse events” value in data set [5] is on record as “no animals died or had adverse events”. In addition, the “plasma level in 24 hours” value in data set [5] is reported as “below the detection limit”. The efflux ratio at 2 h, 1 µM in the data set on P-gp (MDR1) [6] was 0.8.
In the case of `Cc1[nH]ncc1-c1ccc2cc(C(=O)NCc3c(Cl)cccc3C3(O)CC3)[nH]c2n1` [Compound 6, N-(2-chloro-6-(1-hydroxycyclopropyl)benzyl)-6-(5-methyl-1H-pyrazol-4-yl)-1H-pyrrolo[2,3-b]pyridine-2-carboxamide], the efflux ratio at 2 h in the data set on P-gp (MDR1) [1] was determined as 133.
Regarding `O=C(NCc1ccccc1F)c1cc2ccc(-c3cn[nH]c3C(F)(F)F)nc2[nH]1` [Compound 11, N-[(2-Fluorophenyl)methyl]-6-[3-(trifluoromethyl)-2H-pyrazol-4-yl]-1H-pyrrolo[2,3-b]pyridine-2-carboxamide], the IC50 at ROCK1 (setting [7]) is > 1000 nM; against ROCK2 (setting [7]) it was 1370 nM.
For `C[C@H]1O[C@@H](O[C@H]2[C@@H](O)C[C@H](O[C@H]3[C@@H](O)C[C@H](O[C@H]4CC[C@@]5(C)[C@H](CC[C@@H]6[C@@H]5C[C@@H](O)[C@]5(C)[C@@H](C7=CC(=O)OC7)CC[C@]65O)C4)O[C@@H]3C)O[C@@H]2C)C[C@H](O)[C@@H]1O` [Digoxin, reference compound], the efflux ratio at 2 h with P-gp (MDR1) [1] came out at 28.4.
In turn, `CC(=O)[C@H]1CC[C@H]2[C@@H]3CCC4=CC(=O)CC[C@]4(C)[C@H]3CC[C@]12C` [Progesterone, reference compound] showed a solubility (kinetic) at 2 h in data set [3] of 13.3 µM (≈ 4.19 µg/mL).

Usually IC50 stands for the concentration needed to halve the response being measured. Low values mean greater potency, high ones weaker potency. The term efflux ratio denotes the permeability from basolateral to apical divided by that in the opposite direction, in the common usage. Usually AUC(0-inf) stands for the area under the concentration-time curve extrapolated to infinity. Lower therefore signals less exposure. One may read the AUC(0-t) as exposure summed from dosing to a finite time, without extrapolation to infinity. A high value points to more exposure. A word on the Cmax: it is the peak of the concentration-time curve. The term half-life denotes the time needed for the level to fall by half in the phase considered. Low readings indicate rapid decline, high ones slow decline. The term Tmax denotes the time from dosing to the highest level. For orientation: kinetic solubility means the concentration staying in solution when a stock, usually in DMSO, is diluted into the medium.
